Test results from patent US20260297070A1, “CYCLIC [COMPOUND LEFT OUT] WRN INHIBITORS” (Nimbus Wadjet, Inc., priority 2023, published 2026).

What follows are compounds tested against T1, human Werner helicase (WRN-BV08, Uniprot Q14191, amino acids 517-1235 with L1074F point mutation) (Homo sapiens, UniProt Q14191, L1074F) (assay: WRN (BV08) ADP-Glo Assay). Conditions: 0.15 nM WRN, 5 μM ATP, 0.1 nM DNA duplex, 15 min preincubation, 60 min at 25° C., pH 7.5, 1% DMSO; read-out: ADP-Glo_hWRN_IC50.
T1 construct: Uniprot Q14191, amino acids 517-1235 with L1074F point mutation; TEV-cleavable 8×His (C, cleaved yes); made in house; host or cells: Sf9 insect cells (baculovirus)
T1 sequence (Q14191 with tags, fused parts or gaps L1074F limits assumed): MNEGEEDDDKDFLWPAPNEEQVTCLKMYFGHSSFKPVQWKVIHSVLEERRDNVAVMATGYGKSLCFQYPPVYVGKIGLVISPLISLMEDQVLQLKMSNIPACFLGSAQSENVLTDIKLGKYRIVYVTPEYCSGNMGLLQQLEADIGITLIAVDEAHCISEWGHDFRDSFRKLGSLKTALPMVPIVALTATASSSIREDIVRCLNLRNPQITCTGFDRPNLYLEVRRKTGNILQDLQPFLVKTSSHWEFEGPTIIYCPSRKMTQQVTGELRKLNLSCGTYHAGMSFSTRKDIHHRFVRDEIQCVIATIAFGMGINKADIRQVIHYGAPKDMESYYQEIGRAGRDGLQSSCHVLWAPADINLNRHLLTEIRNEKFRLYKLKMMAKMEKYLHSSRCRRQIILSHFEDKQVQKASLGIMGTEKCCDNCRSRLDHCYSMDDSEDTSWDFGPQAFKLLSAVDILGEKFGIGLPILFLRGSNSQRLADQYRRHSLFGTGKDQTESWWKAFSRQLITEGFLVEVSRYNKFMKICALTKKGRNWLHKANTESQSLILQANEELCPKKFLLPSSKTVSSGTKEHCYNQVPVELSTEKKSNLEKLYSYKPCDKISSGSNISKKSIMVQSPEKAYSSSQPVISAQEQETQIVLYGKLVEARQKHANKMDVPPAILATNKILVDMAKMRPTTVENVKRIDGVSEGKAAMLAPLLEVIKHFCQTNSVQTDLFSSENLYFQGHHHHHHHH
Assay type: biochemical
Method in brief: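 WRN 0.15 nM + cpd, 15 min 25 °C; add 5 μM ATP / 0.1 nM annealed DNA duplex; 60 min 25 °C; ADP-Glo stop, RLU. Buffer 20 mM Bicine pH 7.5, 1 mM MgCl2, 10 mM KCl, 1 mM TCEP. IC50, 4-parameter fit.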

IC50 [µM] | Compound
> 50 | O=C(Cc1cccc2ccccc12)N(Cc1ccncc1)C1C=CS(=O)(=O)C1 (centres unmarked) [I-431, N-(1,1-dioxo-2,3-dihydro-1lambda6-thiophen-3-yl)-2-(naphthalen-1-yl)-N-[(pyridin-4-yl)methyl]acetamide]
0.5 to 5 | C#CCN(C)C(=O)c1ccc(CN(C(=O)Cc2ccc(-n3cccc3)cc2F)C2C=CS(=O)(=O)C2)cc1 (centres unmarked) [I-153, 4-{[N-(1,1-dioxo-2,3-dihydro-1lambda6-thiophen-3-yl)-2-[2-fluoro-4-(1H-pyrrol-1-yl)phenyl]acetamido]methyl}-N-methyl-N-(prop-2-yn-1-yl)benzamide]
10 to 50 | N#Cc1cc(F)ccc1-c1ccc(CC(=O)N(Cc2ccncc2)C2C=CS(=O)(=O)C2)cc1 (centres unmarked) [I-348, 2-{2′-cyano-4′-fluoro-[1,1′-biphenyl]-4-yl}-N-(1,1-dioxo-2,3-dihydro-1lambda6-thiophen-3-yl)-N-[(pyridin-4-yl)methyl]acetamide]
> 50 | O=C(CCc1cccc(OC(F)(F)F)c1)N(Cc1ccncc1)C1C=CS(=O)(=O)C1 (centres unmarked) [I-508, N-(1,1-dioxo-2,3-dihydro-1lambda6-thiophen-3-yl)-N-[(pyridin-4-yl)methyl]-3-[3-(trifluoromethoxy)phenyl]propanamide]
10 to 50 | COC(C(=O)N(Cc1ccncc1)C1C=CS(=O)(=O)C1)c1ccc(-c2ccc(C)cc2)cc1 (centres unmarked) [I-356, N-(1,1-dioxo-2,3-dihydro-1lambda6-thiophen-3-yl)-2-methoxy-2-{4′-methyl-[1,1′-biphenyl]-4-yl}-N-[(pyridin-4-yl)methyl]acetamide]
< 0.5 | COc1cc([C@H](C)N(C(=O)Cn2cc(-c3cc(F)c(F)c(F)c3)cn2)[C@@H]2C=CS(=O)(=O)C2)ccn1 [I-829, N-[(3R)-1,1-dioxo-2,3-dihydro-1lambda6-thiophen-3-yl]-N-[(1S)-1-(2-methoxypyridin-4-yl)ethyl]-2-[4-(3,4,5-trifluorophenyl)-1H-pyrazol-1-yl]acetamide]
10 to 50 | CC(C)(C)c1ccc(CC(=O)N(Cc2ccncc2)C2C=CS(=O)(=O)C2)cc1 (centres unmarked) [I-310, 2-(4-tert-butylphenyl)-N-(1,1-dioxo-2,3-dihydro-1lambda6-thiophen-3-yl)-N-[(pyridin-4-yl)methyl]acetamide]
0.5 to 5 | COc1cc(CN(C(=O)C(C)c2ccc(-n3cccc3)cc2)C2C=CS(=O)(=O)C2)ccn1 (centres unmarked) [I-212, N-(1,1-dioxo-2,3-dihydro-1lambda6-thiophen-3-yl)-N-[(2-methoxypyridin-4-yl)methyl]-2-[4-(1H-pyrrol-1-yl)phenyl]propanamide]
0.5 to 5 | COC(C(=O)N(Cc1ccncc1)C1C=CS(=O)(=O)C1)c1ccc(-c2ccc(F)cc2)cc1 (centres unmarked) [I-144, N-(1,1-dioxo-2,3-dihydro-1lambda6-thiophen-3-yl)-2-{4′-fluoro-[1,1′-biphenyl]-4-yl}-2-methoxy-N-[(pyridin-4-yl)methyl]acetamide]
0.5 to 5 | O=C(Cc1ccc(-c2ccc(F)cc2F)cc1)N(Cc1ccncc1)C1C=CS(=O)(=O)C1 (centres unmarked) [I-203, 2-{2′,4′-difluoro-[1,1′-biphenyl]-4-yl}-N-(1,1-dioxo-2,3-dihydro-1lambda6-thiophen-3-yl)-N-[(pyridin-4-yl)methyl]acetamide]
> 50 | O=C(Cn1cc(C2CC2)cn1)N(Cc1ccncc1)C1C=CS(=O)(=O)C1 (centres unmarked) [I-429, 2-(4-cyclopropyl-1H-pyrazol-1-yl)-N-(1,1-dioxo-2,3-dihydro-1lambda6-thiophen-3-yl)-N-[(pyridin-4-yl)methyl]acetamide]
0.5 to 5 | COc1cc(CN(C(=O)C(C)n2cc(-c3ccc(F)cc3)cn2)[C@@H]2C=CS(=O)(=O)C2)ccn1 (stereo partly drawn) [I-137, N-[(3R)-1,1-dioxo-2,3-dihydro-1lambda6-thiophen-3-yl]-2-[4-(4-fluorophenyl)-1H-pyrazol-1-yl]-N-[(2-methoxypyridin-4-yl)methyl]propanamide]
0.5 to 5 | O=C(C(C(=O)N(Cc1ccncc1)C1C=CS(=O)(=O)C1)c1ccc(-c2ccc(F)cc2)cc1)N1CCC1 (centres unmarked) [I-140, 3-(azetidin-1-yl)-N-(1,1-dioxo-2,3-dihydro-1lambda6-thiophen-3-yl)-2-{4′-fluoro-[1,1′-biphenyl]-4-yl}-3-oxo-N-[(pyridin-4-yl)methyl]propanamide]
0.5 to 5 | O=C(Cc1ccc(-n2cccc2)cc1F)N(Cc1ccc(Br)cc1)C1C=CS(=O)(=O)C1 (centres unmarked) [I-122, N-[(4-bromophenyl)methyl]-N-(1,1-dioxo-2,3-dihydro-1lambda6-thiophen-3-yl)-2-[2-fluoro-4-(1H-pyrrol-1-yl)phenyl]acetamide]
> 50 | Cc1cccc(-c2nc(CC(=O)N(Cc3ccncc3)C3C=CS(=O)(=O)C3)cs2)c1 (centres unmarked) [I-333, N-(1,1-dioxo-2,3-dihydro-1lambda6-thiophen-3-yl)-2-[2-(3-methylphenyl)-1,3-thiazol-4-yl]-N-[(pyridin-4-yl)methyl]acetamide]
0.5 to 5 | COc1cc(CN(C(=O)C(OCC2CCN(S(C)(=O)=O)C2)c2ccc(-c3ccc(F)c(F)c3)cc2F)[C@@H]2C=CS(=O)(=O)C2)ccn1 (stereo partly drawn) [I-808, N-[(3R)-1,1-dioxo-2,3-dihydro-1lambda6-thiophen-3-yl]-2-[(1-methanesulfonylpyrrolidin-3-yl)methoxy]-N-[(2-methoxypyridin-4-yl)methyl]-2-{3,3′,4′-trifluoro-[1,1′-biphenyl]-4-yl}acetamide]
0.5 to 5 | COc1cc(CN(C(=O)Cc2ccc(-c3ccc(F)cc3O)nc2)C2C=CS(=O)(=O)C2)ccn1 (single isomer, unassigned) [I-130]
< 0.5 | COc1cc(CN(C(=O)C(c2ccc(-c3ccc(F)c(F)c3)cc2F)n2cccn2)[C@@H]2C=CS(=O)(=O)C2)ccn1 (single isomer, unassigned) [I-671, (2R*)-N-[(3R)-1,1-dioxo-2,3-dihydro-1lambda6-thiophen-3-yl]-N-[(2-methoxypyridin-4-yl)methyl]-2-(1H-pyrazol-1-yl)-2-{3,3′,4′-trifluoro-[1,1′-biphenyl]-4-yl}acetamide]
5 to 10 | CC(C)(N)c1ccc(CN(C(=O)Cc2ccc(S(F)(F)(F)(F)F)cc2)C2C=CS(=O)(=O)C2)cc1 (centres unmarked) [I-700, N-{[4-(2-aminopropan-2-yl)phenyl]methyl}-N-(1,1-dioxo-2,3-dihydro-1lambda6-thiophen-3-yl)-2-[4-(pentafluoro-lambda6-sulfanyl)phenyl]acetamide]
< 0.5 | CC(C)(O)c1cc(CN(C(=O)Cn2cc(-c3cccc(F)c3)cn2)C2C=CS(=O)(=O)C2)ccn1 (centres unmarked) [I-59, N-(1,1-dioxo-2,3-dihydro-1lambda6-thiophen-3-yl)-2-[4-(3-fluorophenyl)-1H-pyrazol-1-yl]-N-{[2-(2-hydroxypropan-2-yl)pyridin-4-yl]methyl}acetamide]
< 0.5 | COc1cc(CN(C(=O)C(c2ccc(-c3ccc(F)c(F)c3)cc2F)n2cc(C#N)cn2)[C@@H]2C=CS(=O)(=O)C2)ccn1 (single isomer, unassigned) [I-703, (2R*)-2-(4-cyano-1H-pyrazol-1-yl)-N-[(3R)-1,1-dioxo-2,3-dihydro-1lambda6-thiophen-3-yl]-N-[(2-methoxypyridin-4-yl)methyl]-2-{3,3′,4′-trifluoro-[1,1′-biphenyl]-4-yl}acetamide]
0.5 to 5 | CC(F)(F)c1ccc(CC(=O)N(Cc2ccncc2)C2C=CS(=O)(=O)C2)cc1 (centres unmarked) [I-191, 2-[4-(1,1-difluoroethyl)phenyl]-N-(1,1-dioxo-2,3-dihydro-1lambda6-thiophen-3-yl)-N-[(pyridin-4-yl)methyl]acetamide]
< 0.5 | O=C(Cc1ccc(S(F)(F)(F)(F)F)cc1)N(Cc1ccncc1)C1C=CS(=O)(=O)C1 (single isomer, unassigned) [I-51]
0.5 to 5 | CN(C)C(=O)c1ccc(CN(C(=O)Cc2ccc(-c3ccc(F)c(F)c3)cc2F)C2C=CS(=O)(=O)C2)cc1 (centres unmarked) [I-779, 4-{[N-(1,1-dioxo-2,3-dihydro-1lambda6-thiophen-3-yl)-2-{3,3′,4′-trifluoro-[1,1′-biphenyl]-4-yl}acetamido]methyl}-N,N-dimethylbenzamide]
5 to 10 | O=C(C1Cc2cc(-n3cccc3)ccc2O1)N(Cc1ccncc1)C1C=CS(=O)(=O)C1 (centres unmarked) [I-244, N-(1,1-dioxo-2,3-dihydro-1lambda6-thiophen-3-yl)-N-[(pyridin-4-yl)methyl]-5-(1H-pyrrol-1-yl)-2,3-dihydro-1-benzofuran-2-carboxamide]
5 to 10 | O=C(Cc1ccc(-n2cccc2)cc1)N(Cc1ccccc1F)C1C=CS(=O)(=O)C1 (centres unmarked) [I-257, N-(1,1-dioxo-2,3-dihydro-1lambda6-thiophen-3-yl)-N-[(2-fluorophenyl)methyl]-2-[4-(1H-pyrrol-1-yl)phenyl]acetamide]
10 to 50 | CS(=O)(=O)Nc1ccc(CN(C(=O)Cc2ccc(-n3cccc3)cc2)C2C=CS(=O)(=O)C2)cc1 (centres unmarked) [I-284, N-(1,1-dioxo-2,3-dihydro-1lambda6-thiophen-3-yl)-N-[(4-methanesulfonamidophenyl)methyl]-2-[4-(1H-pyrrol-1-yl)phenyl]acetamide]
< 0.5 | COc1cc(CN(C(=O)C(c2ccc(-c3ccc(F)c(F)c3)cc2F)n2ccc(C)n2)[C@@H]2C=CS(=O)(=O)C2)ccn1 (single isomer, unassigned) [I-750, (2R*)-N-[(3R)-1,1-dioxo-2,3-dihydro-1lambda6-thiophen-3-yl]-N-[(2-methoxypyridin-4-yl)methyl]-2-(3-methyl-1H-pyrazol-1-yl)-2-{3,3′,4′-trifluoro-[1,1′-biphenyl]-4-yl}acetamide]

Compound | IC50 [µM]
O=C(Cc1ccc(OC2CCC2)cc1)N(Cc1ccncc1)C1C=CS(=O)(=O)C1 (centres unmarked) [I-463, 2-(4-cyclobutoxyphenyl)-N-(1,1-dioxo-2,3-dihydro-1lambda6-thiophen-3-yl)-N-[(pyridin-4-yl)methyl]acetamide] | > 50
